Measurements taken from ChEMBL document CHEMBL3045146, “Synthesis and biological activity of novel phenyltriazolinone derivatives” (2010).
The source made the active and inactive calls. The calls are words filed in the database; no cut-off is given here.

Key:
Amaranthus retroflexus = test: Herbicidal activity against Amaranthus retroflexus assessed as growth inhibition at 150 g/ha; format: functional, organism-based
Brassica juncea = test: Herbicidal activity against Brassica juncea assessed as growth inhibition at 150 g/ha; format: functional, organism-based
Poa annua = test: Herbicidal activity against Poa annua assessed as growth inhibition at 150 g/ha; format: functional, organism-based
Echinochloa crus-galli = test: Herbicidal activity against Echinochloa crus-galli (barnyard grass) assessed as growth inhibition at 150 g/ha; format: functional, organism-based
Digitaria sanguinalis = test: Herbicidal activity against Digitaria sanguinalis (hairy crabgrass) assessed as growth inhibition at 150 g/ha; format: functional, organism-based
Eclipta prostrata = test: Herbicidal activity against Eclipta prostrata assessed as growth inhibition at 150 g/ha; format: functional; details: for inhibition of growth at 150 g/ha: read-out: GI

| SMILES | growth inhibition (GI) (Amaranthus retroflexus) | growth inhibition (GI) (Brassica juncea) | growth inhibition (GI) (Poa annua) | growth inhibition (GI) (Echinochloa crus-galli) | growth inhibition (GI) (Digitaria sanguinalis) | growth inhibition (GI) (Eclipta prostrata) | inhibition of growth at 150 g/ha (Eclipta prostrata) [%] |
| --- | --- | --- | --- | --- | --- | --- | --- |
| COC(=O)N(OC)c1ccccc1Cn1c(C)nn(-c2cc(NS(C)(=O)=O)c(Cl)cc2Cl)c1=O | inactive | inactive | inactive | inactive | inactive | inactive | – |
| CCS(=O)(=O)Nc1cc(-n2nc(C)n(Cc3ccccc3/C(=C\OC)C(=O)OC)c2=O)c(F)cc1Cl | inactive | inactive | inactive | inactive | inactive | inactive | – |
| COC(=O)N(OC)c1ccccc1Cn1c(C)nn(-c2cc(NS(=O)(=O)c3ccccc3)c(Cl)cc2Cl)c1=O | inactive | inactive | Active | Active | Active | inactive | – |
| CCS(=O)(=O)Nc1cc(-n2nc(C)n(Cc3ccccc3N(OC)C(=O)OC)c2=O)c(F)cc1Cl | inactive | inactive | inactive | inactive | inactive | – | 70 |
| CO/C=C(/C(=O)OC)c1ccccc1Cn1c(C)nn(-c2cc(NS(=O)(=O)c3ccccc3)c(Cl)cc2Cl)c1=O | inactive | inactive | inactive | inactive | inactive | inactive | – |
| CO/N=C(/C(=O)OC)c1ccccc1Cn1c(C)nn(-c2cc(NS(=O)(=O)c3ccccc3)c(Cl)cc2F)c1=O | inactive | inactive | inactive | inactive | inactive | inactive | – |
| CO/N=C(/C(=O)OC)c1ccccc1Cn1c(C)nn(-c2cc(NS(C)(=O)=O)c(Cl)cc2Cl)c1=O | inactive | inactive | inactive | inactive | inactive | inactive | – |
| CO/C=C(/C(=O)OC)c1ccccc1Cn1c(C)nn(-c2cc(NS(C)(=O)=O)c(Cl)cc2F)c1=O | inactive | inactive | inactive | inactive | inactive | inactive | – |
| COC(=O)N(OC)c1ccccc1Cn1c(C)nn(-c2cc(NS(=O)(=O)c3ccccc3)c(Cl)cc2F)c1=O | inactive | inactive | inactive | inactive | inactive | inactive | – |
| CO/N=C(/C(=O)OC)c1ccccc1Cn1c(C)nn(-c2cc(NS(C)(=O)=O)c(Cl)cc2F)c1=O | inactive | inactive | inactive | inactive | inactive | inactive | – |
| CO/C=C(/C(=O)OC)c1ccccc1Cn1c(C)nn(-c2cc(NS(C)(=O)=O)c(Cl)cc2Cl)c1=O | inactive | inactive | inactive | inactive | inactive | inactive | – |
| CCS(=O)(=O)Nc1cc(-n2nc(C)n(Cc3ccccc3N(OC)C(=O)OC)c2=O)c(Cl)cc1Cl | inactive | inactive | Active | Active | Active | inactive | – |
| CCS(=O)(=O)Nc1cc(-n2nc(C)n(Cc3ccccc3/C(=N\OC)C(=O)OC)c2=O)c(Cl)cc1Cl | inactive | inactive | inactive | inactive | inactive | inactive | – |
| CCS(=O)(=O)Nc1cc(-n2nc(C)n(Cc3ccccc3/C(=C\OC)C(=O)OC)c2=O)c(Cl)cc1Cl | inactive | inactive | inactive | inactive | inactive | inactive | – |
| CO/N=C(/C(=O)OC)c1ccccc1Cn1c(C)nn(-c2cc(NS(=O)(=O)c3ccccc3)c(Cl)cc2Cl)c1=O | inactive | inactive | inactive | inactive | inactive | – | 70 |
| COC(=O)N(OC)c1ccccc1Cn1c(C)nn(-c2cc(NS(C)(=O)=O)c(Cl)cc2F)c1=O | inactive | inactive | inactive | inactive | inactive | – | 70 |
| CO/C=C(/C(=O)OC)c1ccccc1Cn1c(C)nn(-c2cc(NS(=O)(=O)c3ccccc3)c(Cl)cc2F)c1=O | inactive | inactive | inactive | inactive | inactive | inactive | – |
